Key:
V79 cells [1] = system: V79 cells
V79 cells [2] = system: V79 cells; remark: listed apart in the source
rabbit red cells = settings: in vivo
cells = settings: cited from earlier work

In the case of O=S(=O)(O)CCCNC1CCCCC1 [CAPS, 3-(Cyclohexylamino)-1-propanesulfonic acid], the “effect on cell doubling time compared to phosphate buffered saline” value (“effect … compared to phosphate buffered saline” below) (Yac cells) is reported as “negligable effects on cell doubling time”.
With O=S(=O)(O)CC(O)CN(CCO)CCO (stereo not drawn) [DIPSO, 3-[N--N--bis(2-hydroxyethyl)amino]-2-hydroxypropane-sulfonic acid] the “effect … compared to phosphate buffered saline” value (Yac cells) was “negligable effects on cell doubling time”.
For CCCCCCCCCCCCCCN1C(=CC=Cc2oc3ccccc3[n+]2CCCCCCCCCCCCCC)Oc2ccccc21 [DiOC14 (3)], the “Cell doubling time of stained cells” value (V79 cells [1]) was “unaffected”, the “Effect on cell viability, Propidium Iodide exclusion” value (V79 cells [2]) was “absence of effect on cell viability” and the “Effect on cell viability, Trypan Blue Exclusion” value (V79 cells [2]) was “absence of effect on cell viability”.
For CCCCCCCCCCCCCCN1C(=CC=CC=Cc2sc3ccccc3[n+]2CCCCCCCCCCCCCC)Sc2ccccc21 [DiSC14 (5)], the “effect on clearance rate of red blood cells” value (rabbit red cells) was “did not affect the clearance rate of red blood cells” and the “lifetime of labelled red cells in circulation” value (rabbit red cells) was 52 days.
For O=S(=O)(O)CCCN1CCN(CCO)CC1 [EPPS, N--(2-Hydroxyethyl)piperazine-N'--3-propanesulfonic acid], the “effect … compared to phosphate buffered saline” value (Yac cells) was “negligable effects on cell doubling time”.
With O=C[C@H](O)[C@@H](O)[C@H](O)[C@H](O)CO [Glucose] the “effect … compared to phosphate buffered saline” value (Yac cells) was “negligable effects on cell doubling time”.
In the case of O=S(=O)(O)CC(O)CN1CCN(CCO)CC1 (stereo not drawn) [HEPPSO, N--2-hydroxyethylpiperazine-N'--2-hydroxypropane-sulfonic acid], the “effect … compared to phosphate buffered saline” value (Yac cells) is reported as “negligable effects on cell doubling time”.
For OC[C@H]1O[C@@](CO)(O[C@H]2O[C@H](CO)[C@@H](O)[C@H](O)[C@H]2O)[C@@H](O)[C@@H]1O [Sucrose], the “Doubling Time” value (Yac cells) was 41.0 h and the “effect … compared to phosphate buffered saline” value (Yac cells) was “negligable effects on cell doubling time”.
With O=S(=O)(O)CCCNC(CO)(CO)CO [TAPS, Tris(hydroxymethyl)-methylaminopropane sulfonic acid] the “effect … compared to phosphate buffered saline” value (Yac cells) was “negligable effects on cell doubling time”.
For CCCCN1C(=O)C(=CC=CC=C2Oc3ccccc3N2CCCS(=O)(=O)O)C(=O)N(CCCC)C1=S [merocyanine 540], the cytotoxicity (cells) is given as “cytotoxic when the cell is exposed to light”.
In the case of Phosphate Buffered Saline, the “Doubling Time” value (Yac cells) is reported as 31.0 h.

From US4783401A (priority 1986, dated 1988)
